Reference: patent US4318916A, “Antibiotic PS-5 and derivatives having β-lactamase inhibitory activity and production thereof” (Sanraku-Ocean Co., Ltd., priority 1977, dated 1982)

Experiments:
[1] = target: Beta-lactamase from Citrobacter freundii E-9 (Citrobacter freundii, UniProt P05193); test: Beta-lactamase inhibition, hydrolysis of cephaloridine (I50 CER); assay type: biochemical; details: Citrobacter freundii E-9 beta-lactamase; cephaloridine substrate; 15 minutes preincubation at 30° C.
Description: The I50^CER value of hydrolysis of cephaloridine by beta-lactamasefor 10 minutes (from one minute to ten minutes after the incubation is started). The rate of hydrolysis of cephaloridine is measured by the decrease of optical density at […]. For routine inhibition assays, beta-lactamase of Citrobacter freundii E-9 and Proteus vulgaris P-5 were employed after purification by affinity chromatography with cephalexin-Sepharose 4B.
Buffer: 0.1 M phosphate buffer (Na-K phosphate) (pH 6.8)
Substrate: 0.05 micromole/ml in phosphate buffer
Beta-lactamase: The enzyme was diluted enough to give a fall of ca. 0.1 optical density unit per 10 minutes at 255 mμ in the absence of an inhibitor. (Apparatus: Hitachi Spectrophotometer UV-VIS 139, Hitachi, Ltd.).
(This can hold one control cuvette and three sample cuvettes. Four 1 cm quarz cuvettes (3 ml in volume) were employed. The temperature was maintained at 30° C. during the reaction). […]
After pre-incubation, the substrate solution (pre-warmed at 30° C.; 3.0 ml) was added and quickly mixed to start the reaction. […] The value of I50^CER (μg/ml) was determined by diluting the inhibitor untill the dilution gave 50% of the rate of hydrolysis of cephaloridine recorded in the no-inhibitor control for 10 minutes (from 1 minute to 11 minutes after the substrate was added).

[2] = test system: Comamonas terrigena B-996; test: Disc bio-assay of antimicrobial activity, cephaloridine equivalent units; assay type: cell-based; details: Comamonas-cephaloridine units per mg of the final purified preparation
Description: The overnight culture of Comamonas terrigena B-996 on a nutrient agar slant was suspended in nutrient broth so as to give an optical cell density of 0.040 at 610 nm.
The seed suspension was added in a 1% amount to a molten agar medium containing 0.8% Kyokuto Nutrient Broth Powder (Kyokuto Pharmaceutical Industries Co.) and 1.0% Bacto-Agar (Difco Laboratories). Seven milliliters of the seeded molten agar medium were distributed in a Petri dish (9 cm in diameter) and solidified). This is defined as a Comamonas assay plate.
An 8 mm pulp disc was usually soaked with a sample solution to be assayed, left on a clean sheet of filter paper for a sufficient time to remove the excess solution and then transferred onto an assay plate. After incubation at 35° C. for 20 hours, the diameter of the observed inhibition zone was measured and compared with standard solutions of cephaloridine. The antimicrobial activity of the antibiotic PS-5 and related compounds is expressed as cephaloridine equivalent units/ml.
As well known to those skilled in the art, the assay standard curve varies to some extent, depending on the species of the test microorganisms. […]

Citrobacter freundii E-9 = test: Potentiation disc assay of trityl ester (Table 14); assay type: cell-based; details: for Halo of inhibition Cephaloridine added: 50 μg/ml cephaloridine in base agar
Description: (§1) (A) Assay Petri dishes (9 cm in diameter) containing resistant microorganisms were prepared by overlaying 10 ml of the molten nutrient agar seeded with beta-lactam-resistant (beta-lactamase-producing) microorganisms, on the solid base layer of nutrient agar (pH 7.0) (15 ml) containing 50 μg/ml of penicillin G or cephaloridine. As described before, the antibiotic solutions to be tested were applied in a 25 μl amount on an 8 mm pulp disc and placed on the said assay dishes. After incubation for 18 hours at 35° C., the inhibition halos were measured and compared with the results on the corresponding assay dished containing neither penicillin G nor cephaloridine. From the data in Table 14, it is very clear that the combination of the tritylation product of antibiotic PS-5 at a concentration below the lower limit of disc assay, with penicillin G or cephaloridine, at a concentration below said limit, produced a significant halo of inhibition. This fact clearly proves the potentiation of the antibiotic activity of penicillin G or cephaloridine with the tritylation product of antibiotic PS-5.

Proteus vulgaris P-5 [3] = test: Potentiation disc assay of trityl ester (Table 14); assay type: cell-based; details: for Halo of inhibition Cephaloridine added: 50 μg/ml cephaloridine in base agar
Description: as §1

Proteus sp. P-22 = test: Potentiation disc assay of trityl ester (Table 14); assay type: cell-based; details: for Halo of inhibition Cephaloridine added: 50 μg/ml cephaloridine in base agar
Description: as §1

Proteus vulgaris P-5 [4] = test: Filter paper strip synergism test; assay type: cell-based; details: Proteus vulgaris P-5 (beta-lactamase producer); crossed filter paper strips, 18 hours at 35° C.
Description: On an assay plate of nutrient agar seeded by a beta-lactam-resistant strain of Proteus vulgaris P-5 (beta-lactamase producer), two filter paper strips containing penicillin G or cephaloridine and two strips containing antibiotic PS-5 were applied to form a square where two strips of the […] antibiotic were contacted at one corner. The antimicrobial activity was read after incubation for 18 hours at 35° C. When suitable concentrations of penicillin G or cephaloridine and antibiotic PS-5 were chosen, the inhibition area was observed only at the corners where both antibiotic PS-5 and penicillin G or cephaloridine were present, but not at the corners where antibiotic PS-5, penicillin G or cephaloridine was solely present. […] That is, when two kinds of compounds were combined at concentrations that were low enough not to give an inhibition zone with a component alone, the large inhibition thus appearing with the combination was due to synergism.

Chain of Beta-lactamase from Citrobacter freundii E-9 (P05193 21-381): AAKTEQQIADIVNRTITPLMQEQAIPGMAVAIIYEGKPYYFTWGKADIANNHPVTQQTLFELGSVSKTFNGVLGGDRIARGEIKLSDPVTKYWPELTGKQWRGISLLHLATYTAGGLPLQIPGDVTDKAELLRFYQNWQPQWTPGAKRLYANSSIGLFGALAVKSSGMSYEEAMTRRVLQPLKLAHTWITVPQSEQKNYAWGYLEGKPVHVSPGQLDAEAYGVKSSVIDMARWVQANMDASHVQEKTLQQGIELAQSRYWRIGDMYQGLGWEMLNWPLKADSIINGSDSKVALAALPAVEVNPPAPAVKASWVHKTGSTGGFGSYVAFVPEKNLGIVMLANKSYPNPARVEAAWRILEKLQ

Row | Compound | IC50 [1] [µM] | Specific activity [2] | zone of inhibition at 50 µg/mL (Citrobacter freundii E-9; E9, 18 h, Trityl PS-5 50 μg/ml, read-out: Halo of inhibition Control) [mm] | zone of inhibition at 100 µg/mL (Citrobacter freundii E-9; E9, 18 h, Trityl PS-5 100 μg/ml, read-out: Halo of inhibition Control) [mm] | Halo of inhibition Cephaloridine added (Citrobacter freundii E-9; Trityl PS-5 50 μg/ml) [mm] | Halo of inhibition Cephaloridine added (Citrobacter freundii E-9; Trityl PS-5 100 μg/ml) [mm] | zone of inhibition at 42 µg/mL (Proteus vulgaris P-5 [3]; P5, 18 h, Trityl PS-5 42 μg/ml, penicillin G series, read-out: Halo of inhibition Control) [mm] | zone of inhibition at 50 µg/mL (Proteus vulgaris P-5 [3]; P5, 18 h, Trityl PS-5 50 μg/ml, cephaloridine series, read-out: Halo of inhibition Control) [mm] | zone of inhibition at 100 µg/mL (Proteus vulgaris P-5 [3]; P5, 18 h, Trityl PS-5 100 μg/ml, cephaloridine series, read-out: Halo of inhibition Control) [mm] | Halo of inhibition Penicillin G added (Proteus vulgaris P-5 [3]; Trityl PS-5 42 μg/ml, 50 μg/ml penicillin G in base agar) [mm] | Halo of inhibition Cephaloridine added (Proteus vulgaris P-5 [3]; Trityl PS-5 50 μg/ml) [mm] | Halo of inhibition Cephaloridine added (Proteus vulgaris P-5 [3]; Trityl PS-5 100 μg/ml) [mm] | zone of inhibition at 50 µg/mL (Proteus sp. P-22; 18 h, Trityl PS-5 50 μg/ml, read-out: Halo of inhibition Control) [mm] | zone of inhibition at 100 µg/mL (Proteus sp. P-22; 18 h, Trityl PS-5 100 μg/ml, read-out: Halo of inhibition Control) [mm] | Halo of inhibition Cephaloridine added (Proteus sp. P-22; Trityl PS-5 50 μg/ml) [mm] | Halo of inhibition Cephaloridine added (Proteus sp. P-22; Trityl PS-5 100 μg/ml) [mm] | Synergism with penicillin G or cephaloridine (Proteus vulgaris P-5 [4])
1 | CCC1C(=O)N2C(C(=O)OC(c3ccccc3)(c3ccccc3)c3ccccc3)=C(SCCNC(C)=O)CC12 (single isomer, unassigned) [Trityl PS-5] | 1.48 | 10,800 CCU/mg | 13 | 16 | 15.5 | 18.0 | 0 | 0 | 11 | 27.0 | 15.0 | 18.0 | 0 | 0 | 11.5 | 13.5 | –
2 | CCC1C(=O)N2C(C(=O)O)=C(SCCNC(C)=O)CC12 (single isomer, unassigned) [Antibiotic PS-5] | – | – | – | – | – | – | – | – | – | – | – | – | – | – | – | – | synergism between the antibiotic PS-5 and penicillin G or cephaloridine
